# Values of other authors in patent US20160007613A1, “Clonostachys rosea Inoculated Plant Materials with Fungicides and Adjuvants” (priority 2014, published 2016).
# Test system: Clonostachys rosea ACM941
# Settings: research by Sutton and Brown; in words
row,Structure (SMILES),toxicity to Clonostachys rosea ACM941
1,COCC(=O)N(c1c(C)cccc1C)C(C)C(=O)OC (centres unmarked) [metalaxyl],not metalaxyl is toxic
2,CN(C)C(=S)SSC(=S)N(C)C [thiram],toxic
